Reference: US9232795B2, “Herbicidal compositions comprising 4-amino-3-chloro-6-(4-chloro-2-fluoro-3-methoxyphenyl) pyridine-2-carboxylic acid or a derivative thereof and flurtamone” (Dow AgroSciences LLC, priority 2012, dated 2016)

Legend:
Format in all cases: in vivo
[1] = tested on: Viola tricolor L.; test: greenhouse trial, foliar applied compositions, VIOTR (wild violet)
Description: (§1) More specifically, the following equation is used to calculate the expected activity of mixtures containing two herbicidal active ingredients: Expected=A+B−(A×B/100) A=observed efficacy of a first active ingredient at the same concentration as used in the mixture; B=observed efficacy of the second active ingredient (or product, which may contain a combination of active ingredients) at the same concentration as used in the mixture. For mixtures containing three herbicidal active ingredients, the following equation can be used to calculate the expected activity: Expected=100−[(100−A)(100−B)(100−C)/10,000] A=observed efficacy of a first active ingredient at the same concentration as used in the mixture; B=observed efficacy of a second active ingredient B at the same concentration as used in the mixture; C=observed efficacy of a third active ingredient C at the same concentration as used in the mixture.
(§2) Results in Tables 1-12 are greenhouse trial results for foliar applied compositions.
(§3) g/ha=grams acid equivalent per hectare for Cmpd 1 and grams active ingredient per hectare for flurtamone, flufenacet, and diflufenican Obs=observed value Exp=expected value as calculated by the equations set forth above. Cmpd 1=methyl 4-amino-3-chloro-6-(4-chloro-2-fluoro-3-methoxyphenyl)-pyridine-2-carboxylate

[2] = tested on: Cirsium arvense (L.) Scop.; test: greenhouse trial, foliar applied compositions, CIRAR (Canada thistle)
Description: as §1, §2, §3

[3] = tested on: Amaranthus retroflexus L.; test: greenhouse trial, foliar applied compositions, AMARE (redroot pigweed)
Description: as §1, §2, §3

[4] = tested on: Cyperus esculentus L.; test: greenhouse trial, foliar applied compositions, CYPES (yellow nutsedge)
Description: as §1, §2, §3

[5] = tested on: Stellaria media (L.) Vill.; test: greenhouse trial, foliar applied compositions, STEME (common chickweed)
Description: as §1, §2, §3

[6] = tested on: Abutilon theophrasti Medik.; test: greenhouse trial, foliar applied compositions, ABUTH (velvetleaf)
Description: as §1, §2, §3

[7] = tested on: Triticum aestivum (spring); test: greenhouse trial, foliar applied compositions, TRZAS (spring wheat)
Description: as §1, §2, §3

[8] = tested on: Euphorbia heterohylla L.; test: greenhouse trial, foliar applied compositions, EPHHL (wild poinsettia)
Description: as §1, §2, §3

[9] = tested on: Ipomoea hederacea; test: greenhouse trial, foliar applied compositions, IPOHE (ivyleaf morningglory)
Description: as §1, §2, §3

[10] = tested on: Setaria faberi Herrm.; test: greenhouse trial, foliar applied compositions, SETFA (giant foxtail)
Description: as §1, §2, §3

[11] = tested on: Chenpodium album L.; test: greenhouse trial, foliar applied compositions, CHEAL (common lambsquarters)
Description: as §1, §2, §3

[12] = foliar applied, Cmpd 1 5.00 g/ha

CNC1=C(c2cccc(C(F)(F)F)c2)C(=O)C(c2ccccc2)O1 (racemic) [Flurtamone, (±)-5-(methylamino)-2-phenyl-4-[3-(trifluoromethyl)phenyl]-3(2H)-furanone]
VIOTR Obs ([1]; Flurtamone 62.5 g/ha): 25
VIOTR Obs ([1]; Flurtamone 125 g/ha): 30
CIRAR Obs ([2]; Flurtamone 62.5 g/ha): 88
CIRAR Obs ([2]; Flurtamone 125 g/ha): 95
AMARE Obs ([3]; Flurtamone 62.5 g/ha): 40
AMARE Obs ([3]; Flurtamone 125 g/ha): 65
CYPES Obs ([4]; Flurtamone 62.5 g/ha): 5
CYPES Obs ([4]; Flurtamone 125 g/ha): 8
STEME Obs ([5]; Flurtamone 62.5 g/ha): 20
STEME Obs ([5]; Flurtamone 125 g/ha): 30
ABUTH Obs ([6]; Flurtamone 62.5 g/ha): 40
ABUTH Obs ([6]; Flurtamone 125 g/ha): 63
TRZAS Obs ([7]; Flurtamone 62.5 g/ha): 0
TRZAS Obs ([7]; Flurtamone 125 g/ha): 0
EPHHL Obs ([8]; Flurtamone 62.5 g/ha): 25
EPHHL Obs ([8]; Flurtamone 125 g/ha): 40
IPOHE Obs ([9]; Flurtamone 62.5 g/ha): 25
IPOHE Obs ([9]; Flurtamone 125 g/ha): 33
SETFA Obs ([10]; Flurtamone 62.5 g/ha): 0
SETFA Obs ([10]; Flurtamone 125 g/ha): 10
CHEAL Obs ([11]; Flurtamone 62.5 g/ha): 25
CHEAL Obs ([11]; Flurtamone 125 g/ha): 40

COC(=O)c1nc(-c2ccc(Cl)c(OC)c2F)cc(N)c1Cl [Cmpd 1, methyl 4-amino-3-chloro-6-(4-chloro-2-fluoro-3-methoxyphenyl)-pyridine-2-carboxylate]
VIOTR Obs ([1]; Cmpd 1 1.25 g/ha): 5
VIOTR Obs ([1]; Cmpd 1 2.50 g/ha): 15
VIOTR Obs ([1]; Cmpd 1 5.00 g/ha): 23
VIOTR Obs [1, 12]: 23
CIRAR Obs ([2]; Cmpd 1 1.25 g/ha): 20
CIRAR Obs ([2]; Cmpd 1 2.50 g/ha): 55
CIRAR Obs ([2]; Cmpd 1 5.00 g/ha): 75
CIRAR Obs [2, 12]: 75
AMARE Obs ([3]; Cmpd 1 1.25 g/ha): 30
AMARE Obs ([3]; Cmpd 1 2.50 g/ha): 93
AMARE Obs ([3]; Cmpd 1 5.00 g/ha): 78
AMARE Obs [3, 12]: 78
CYPES Obs ([4]; Cmpd 1 1.25 g/ha): 58
CYPES Obs ([4]; Cmpd 1 2.50 g/ha): 85
CYPES Obs ([4]; Cmpd 1 5.00 g/ha): 81
CYPES Obs [4, 12]: 81
STEME Obs ([5]; Cmpd 1 1.25 g/ha): 20
STEME Obs ([5]; Cmpd 1 2.50 g/ha): 58
STEME Obs ([5]; Cmpd 1 5.00 g/ha): 65
STEME Obs [5, 12]: 65
ABUTH Obs ([6]; Cmpd 1 1.25 g/ha): 78
ABUTH Obs ([6]; Cmpd 1 2.50 g/ha): 91
ABUTH Obs ([6]; Cmpd 1 5.00 g/ha): 98
TRZAS Obs ([7]; Cmpd 1 1.25 g/ha): 0
TRZAS Obs ([7]; Cmpd 1 2.50 g/ha): 0
TRZAS Obs ([7]; Cmpd 1 5.00 g/ha): 0
EPHHL Obs ([8]; Cmpd 1 1.25 g/ha): 60
EPHHL Obs ([8]; Cmpd 1 2.50 g/ha): 89
EPHHL Obs ([8]; Cmpd 1 5.00 g/ha): 92
EPHHL Obs [8, 12]: 92
IPOHE Obs ([9]; Cmpd 1 1.25 g/ha): 15
IPOHE Obs ([9]; Cmpd 1 2.50 g/ha): 15
IPOHE Obs ([9]; Cmpd 1 5.00 g/ha): 35
SETFA Obs ([10]; Cmpd 1 1.25 g/ha): 0
SETFA Obs ([10]; Cmpd 1 2.50 g/ha): 5
SETFA Obs ([10]; Cmpd 1 5.00 g/ha): 0
CHEAL Obs ([11]; Cmpd 1 1.25 g/ha): 60
CHEAL Obs ([11]; Cmpd 1 2.50 g/ha): 83
CHEAL Obs ([11]; Cmpd 1 5.00 g/ha): 85
CHEAL Obs [11, 12]: 85

O=C(Nc1ccc(F)cc1F)c1cccnc1Oc1cccc(C(F)(F)F)c1 [Diflufenican, N-(2,4-difluorophenyl)-2-[3-(trifluromethyl)phenoxy]-3-pyridinecarboxamide]
VIOTR Obs ([1]; Diflufenican 25 g/ha): 10
VIOTR Obs ([1]; Diflufenican 50 g/ha): 15
CIRAR Obs ([2]; Diflufenican 25 g/ha): 28
CIRAR Obs ([2]; Diflufenican 50 g/ha): 25
AMARE Obs ([3]; Diflufenican 25 g/ha): 25
AMARE Obs ([3]; Diflufenican 50 g/ha): 50
CYPES Obs ([4]; Diflufenican 25 g/ha): 0
CYPES Obs ([4]; Diflufenican 50 g/ha): 0
STEME Obs ([5]; Diflufenican 25 g/ha): 10
STEME Obs ([5]; Diflufenican 50 g/ha): 15
ABUTH Obs ([6]; Diflufenican 25 g/ha): 15
ABUTH Obs ([6]; Diflufenican 50 g/ha): 15
TRZAS Obs ([7]; Diflufenican 25 g/ha): 0
TRZAS Obs ([7]; Diflufenican 50 g/ha): 0
EPHHL Obs ([8]; Diflufenican 25 g/ha): 43
EPHHL Obs ([8]; Diflufenican 50 g/ha): 50
IPOHE Obs ([9]; Diflufenican 25 g/ha): 10
IPOHE Obs ([9]; Diflufenican 50 g/ha): 13
SETFA Obs ([10]; Diflufenican 25 g/ha): 8
SETFA Obs ([10]; Diflufenican 50 g/ha): 5
CHEAL Obs ([11]; Diflufenican 25 g/ha): 25
CHEAL Obs ([11]; Diflufenican 50 g/ha): 25

CC(C)N(C(=O)COc1nnc(C(F)(F)F)s1)c1ccc(F)cc1 [Flufenacet, N-(4-fluorophenyl)-N-(1-methylethyl)-2-[[5-(trifluoromethyl)-1,3,4-thiadiazol-2-yl]oxy]acetamide]
VIOTR Obs ([1]; Flufenacet 30 g/ha): 0
VIOTR Obs ([1]; Flufenacet 60 g/ha): 0
CIRAR Obs ([2]; Flufenacet 30 g/ha): 0
CIRAR Obs ([2]; Flufenacet 60 g/ha): 0
AMARE Obs ([3]; Flufenacet 30 g/ha): 0
AMARE Obs ([3]; Flufenacet 60 g/ha): 0
CYPES Obs ([4]; Flufenacet 30 g/ha): 0
CYPES Obs ([4]; Flufenacet 60 g/ha): 0
STEME Obs ([5]; Flufenacet 30 g/ha): 0
STEME Obs ([5]; Flufenacet 60 g/ha): 0
ABUTH Obs ([6]; Flufenacet 30 g/ha): 0
ABUTH Obs ([6]; Flufenacet 60 g/ha): 0
TRZAS Obs ([7]; Flufenacet 30 g/ha): 0
TRZAS Obs ([7]; Flufenacet 60 g/ha): 0
EPHHL Obs ([8]; Flufenacet 30 g/ha): 0
EPHHL Obs ([8]; Flufenacet 60 g/ha): 0
IPOHE Obs ([9]; Flufenacet 30 g/ha): 0
IPOHE Obs ([9]; Flufenacet 60 g/ha): 0
SETFA Obs ([10]; Flufenacet 30 g/ha): 0
SETFA Obs ([10]; Flufenacet 60 g/ha): 0
CHEAL Obs ([11]; Flufenacet 30 g/ha): 0
CHEAL Obs ([11]; Flufenacet 60 g/ha): 0
